In paper PMC8296573, “Synthesis and Biological Evaluation of Fingolimod Derivatives as Antibacterial Agents” (ACS Omega, 2021):
Values after ≈ are worked out from the molar mass of the structure shown.

Tests used:
[1] = system: C. violaceum ATCC 31532 (wild type); assay: Quorum sensing inhibition assay (violacein) with parallel resazurin viability; type: cell-based, Chromobacterium violaceum; conditions: wild-type strain
Procedure: (§1) The QS inhibitory activity of the compounds was assessed as described previously.[31],[47] Briefly, two QS reporter strains, C. violaceum ATCC 31532 and the violacein-negative, mini-Tn5 mutant of C. violaceum CV026 (NCTC 13278), were grown on LBA (for CV026, the agar was supplemented with kanamycin at 100 μg mL^–1) overnight at 27 °C. Colonies were suspended in PDYT (0.5% peptone, 0.3% D-glucose, 0.25% yeast extract, 0.05% L-tryptophan, w/v) to reach an OD600 of 0.02. The CV026 culture was supplemented with C6-HSL (N-hexanoyl-L-homoserine lactone) (10007896, Cayman Chemical, MI) at 0.5 μM to induce the QS-moderated synthesis of violacein. For each strain, 200 μL of bacterial culture was added per well in two identical 96-well plates containing the compounds (2 μL per well for a final DMSO concentration of 1%). In each 96-well plate, untreated cells were used as negative controls and quercetin (Q4951, Sigma-Aldrich) and azithromycin (PZ0007, Sigma-Aldrich) were included as positive controls for QS inhibition and cell viability (bactericidal activity), respectively. The plates were incubated at 27 °C under aerobic conditions (200 rpm) for 22 h.
(§2) The synthesized and nonsoluble violacein was collected from the first 96-well plate by centrifugation (4000 rpm, for 15 min, 20 °C), and the supernatants were removed. Violacein was dissolved in 100 μL per well of 96% (v/v) ethanol and was separated from cells by centrifugation as described above. The supernatant containing violacein was then transferred to a new 96-well plate, and the absorbance was measured at 595 nm using a Multiskan Sky Microplate spectrophotometer. To detect any bactericidal effects, the viability of the cells was measured in the second replica plate by adding 10 μL of 400 μM resazurin in each well and incubating the plate for 30 min in the dark at 27 °C (220 rpm). After centrifugation of the plate to separate the cells from the solution, 100 μL of each well were transferred into a new 96-well plate and the fluorescence was recorded as described above using the Varioskan LUX multimode plate reader.

[2] = system: C. violaceum CV026 (AHL-deficient mutant); assay: as above; type: cell-based, Chromobacterium violaceum; conditions: mutant strain
Procedure: as §1, §2

Solubility in DMSO = type: physicochemical
S. aureus ATCC 25923 [3] = assay: S. aureus attachment on LDPE tubes, alone or in coculture with differentiated HL-60 cells; type: cell-based, Staphylococcus aureus; conditions: 25 μM, 24 h
Procedure: The coculture system was as previously described.[40] Briefly, the bacteria were prepared as described above and the concentration was adjusted to 2 × 10^7 CFU mL^–1 in RPMI 1640. The media of the differentiated HL-60 cells was refreshed with RPMI 1640 24 h before the experiments to remove possible traces of antibiotics. On the day of the experiment, the cells were counted and adjusted to a concentration of 2 × 10^5 cells mL^–1 in RPMI 1640. Each suspension (bacterial and differentiated HL-60 cells, 500 μL of each) was added on 1-cm-long sections of a sterilized fine bore LDPE tubing (Smiths Medical ASD, Minneapolis, MN) in 24-well plates (Nunclon Δ surface, Nunc, Roskilde, Denmark). Fingolimod was also added to the wells at a concentration of 25 μM (0.25% DMSO). Coculture controls with no added compound were included, as well as bacterial controls without differentiated HL-60 cells with and without fingolimod. The plates were incubated for 24 h in the same conditions as for cell maintenance. Then, the LDPE tubes were gently washed with TSB to remove adhering planktonic cells and transferred to Eppendorf tubes containing 1 mL of 0.5% (w/v) Tween 20-TSB solution. Next, the tubes were sonicated in a water bath sonicator (Branson Ultrasonics, Danbury, CT) for 5 min at 35 kHz. The tubes were vortexed for 20 s prior to and after the sonication step. […]

S. aureus ATCC 25923 [4] = system: S. aureus ATCC 25923; design: method as in PMID 33233348; conditions: previously found; cited from earlier work
A. baumannii NCTC 13423 = system: A. baumannii NCTC 13423; design: method as in PMID 33233348; conditions: previously reported; cited from earlier work
HEp-2 = assay: Cytotoxicity, resazurin staining assay; type: cell-based, human; conditions: 24 h incubation
Procedure: (§3) The cytotoxicity of the compounds was assessed on the three different human cell lines, A549, HEp-2, and HL-60, using the redox-based resazurin staining assay. The cells were seeded in clear 96-well plates at a density of 1 × 10^4 cells per well in a volume of 200 μL per well. The adherent cells were let to attach for 24 h before changing the media and adding the compounds (final concentration of 0.25% DMSO). HL-60 were counted and added to the plates at a density of 1 × 10^4 cells per well in a volume of 200 μL directly with the compounds. Untreated cells were used as negative controls, and cells treated with 1% TritonX-100 (Sigma-Aldrich, St. Louis, MO) were used as positive controls for cytotoxicity. The cells were incubated with the compounds for 24 h.
(§4) For the resazurin assay, the media was first removed, and the adherent cells were washed once with PBS. Then, 200 μL of 20 μM resazurin was added per well and cells were incubated for two more hours before the measurement of fluorescence, as mentioned earlier. For HL-60, 10 μL of 400 μM resazurin was added directly to the wells and the cells were incubated for an additional 4 h before the measurement of fluorescence.

A549 = assay: Cytotoxicity, resazurin staining assay; type: cell-based, human; conditions: 24 h incubation
Procedure: as §3, §4

HL-60 = assay: Cytotoxicity, resazurin staining assay; type: cell-based, human; conditions: 24 h incubation
Procedure: as §3, §4

With `CCCCCCCCc1ccc2cc(CC(N)(CO)CO)ccc2c1` [Compound 79, 2-Amino-2-[(6-octylnaphthalen-2-yl)methyl]propane-1,3-diol] as the compound, how does the “QSI activity compared with fingolimod” value [1] read?
The value was “significantly lower QSI activity than fingolimod”.

What about the “QSI activity compared with fingolimod” value [2] of the same compound?
The value was “significantly lower QSI activity than fingolimod”.

For `CCCCCCCCc1ccc2ccc(CC(N)(CO)CO)nc2c1` [Compound 82, 2-Amino-2-[(7-octylquinolin-2-yl)methyl]propane-1,3-diol], which “QSI activity compared with fingolimod” value [2] is on record?
The value was “significantly better QSI activity”.

Which results are given for `CCCCCCCCc1ccc(CCC(N)(CO)CO)cc1` [fingolimod, Fingolimod]?
Solubility in dimethyl sulfoxide (DMSO) (Solubility in DMSO): not fully soluble; Bacterial attachment on LDPE tubes (S. aureus ATCC 25923 [3]; in combination with HL-60 cells, vs coculture control (p = 0.042)): significant reduction; Numbers of attached viable S. aureus on LDPE tubes (S. aureus ATCC 25923 [3]; in the absence of HL-60 cells, vs monoculture control (p = 0.013)): significantly reduced; MIC in pre-exposure, S. aureus (S. aureus ATCC 25923 [4]): 15 µM (≈ 4.61 µg/mL); MIC A. baumannii (A. baumannii NCTC 13423): 25 µM (≈ 7.69 µg/mL)

For “2-Amino-2-(4-decylbenzyl)propane-1,3-diol [Compound 45]”, which CC50 (HEp-2) is on record?
Its CC50 is greater than 40 µM.

What about the CC50 (A549) of the same compound?
The CC50 was 27.4 ± 15.1 µM.

And the CC50 (HL-60)?
Its CC50 is 3.2 ± 1 µM.

For `CCCCCCCCCCc1ccc(CCC(N)(CO)CO)nc1` [Compound 62, 2-Amino-2-[2-(5-decylpyridin-2-yl)ethyl]propane-1,3-diol], which “QSI activity compared with fingolimod” value [1] is on record?
The value was “significantly worse than fingolimod”.

For `CCCCCCCCCCc1ccc2nc(CCC(N)(CO)CO)ccc2c1` [Compound 81, 2-Amino-2-[2-(6-decylquinolin-2-yl)ethyl]propane-1,3-diol], which “Solubility in dimethyl sulfoxide (DMSO)” value (Solubility in DMSO) is on record?
Its value is “not fully soluble”.
